# Source: patent US20230041065A1, “METHODS FOR GENERATING HEMATOPOIETIC STEM CELLS” (The Brigham and Women`s Hospital, Inc., priority 2019, published 2023)
# “Also recorded” adds a separate entry of the source.
# How the values were obtained:
# E11.5 AGM cells = test: Hematopoietic CFU and FACS assays on E11.5 AGM cells; type: cell-based, mouse
# Description: Pulsating blood vessels like conditions were stimulated in vitro using Flexcell FX-4000 machine. To analyze roles of pharmacological targets in regulating the endothelial-to-HSC transition, mouse embryo-derived AGM or whole mouse embryo were exposed ex vivo with biomechanical stretching, chemicals, or drugs. Next, hematopoietic colony formation assays were performed by incubating mouse AGM-derived cells in StemCell M3434 media for seven days. Serial transplantation of AGM-derived HSCs in lethally irradiated SJL mice were performed. The stem cell frequency upon biomechanical stretching was analyzed using a limiting dilution assay. To characterize properties of AGM-HSC-derived blood cells in primary transplants, percentage chimerism and reconstitution was measured using FACS, globin transcripts were analyzed using quantitative reverse transcriptase-PCR, myeloperoxidase amount was measured using PicoKine ELISA kit, TCR-β rearrangement was analyzed using PCR for TCR-β locus, pre-immune IG detection was analyzed using Thermo-Fisher Mouse Ig Isotyping kit, and delayed-type hypersensitivity was analyzed by injecting sheep RBC (Rockland Immunochemicals) in the footpad of pre-sensitized mice. E11.5 AGM were harvested from C57BL6/J Cd45.2 mouse embryos, and a single cell suspension of a three-embryo equivalent of cells was seeded on each well of a BioFlex six-well culture plate ([…]). We cultured cells overnight with the application of cyclic strain (Flexcell® FX4000TM Tension System) and/or treatment with chemical modulators (2-100 μM Yoda1, 1 μM Nanaomycin, 100 μM Gdcl3, 1 uM GsMT×4, 5-20 μM 4αPDD, 10 uM GSK205). Next, harvested cells were used to perform transplant, fluorescence-activated cell sorting (FACS) analysis, and colony-forming unit (CFU) assays. For CFU assays, cells from AGM explant or ex vivo were plated in MethoCult GF M3434 media (StemCell Technologies). Seven days after seeding, we analyzed their capacity to make granulocyte, erythroid, macrophage, megakaryocyte (GEMM), granulocyte macrophage (GM), granulocyte (G), macrophage (M), and erythroid (E) colonies.
# [1] = system: human iPSC-derived MACS-sorted CD34+ cells; test: Hematopoietic CFU assays of human iPSC-derived MACS-sorted CD34+ cells; type: cell-based; conditions: 20,000 hCD34+ cells per sample
# Description: Embryoid body and hemogenic endothelium differentiation was performed as described in (Sugimura et al. 2017; Ditadi et al. 2015). Briefly, hiPSC colonies were dissociated with 0.05% trypsin for 5 min at 37° C., washed with PBS+2% FBS, and resuspended in StemPro-34 (Invitrogen, 10639-011) supplemented with L-glutamine (2 mM), penicillin/streptomycin ([…]), ascorbic acid (1 mM), human holo-Transferrin ([…], Sigma T0665), monothioglycerol (MTG, 0.4 mM), BMP4 (10 ng/ml), and Y-27632 (10 μM). Five million cells were seeded into 10 cm dishes (Ezsphere, Asahi Glass) for the spheroid formation. On Day 1, bFGF (5 ng/ml) and BMP4 (10 ng/ml) was added to the medium. On Day 2, the media was changed with the StemPro-34 supplemented with SB431542 (6 μM), CHIR99021 (3 μM), bFGF (5 ng/ml), and BMP4 (10 ng/ml). On Day 3, the medium was replaced with StemPro-34 supplemented with VEGF (15 ng/ml) and bFGF (10 ng/ml). On day 6, the medium was changed to StemPro-34 supplemented with bFGF (5 ng/ml), VEGF (15 ng/ml), interleukin (IL)-6 (10 ng/ml), IGF-1 (25 ng/ml), IL-11 (5 ng/ml), SCF (50 ng/ml) and EPO (2IU). The cells were maintained in a 5% CO2, 5% O2 and 95% humidity incubator. All cytokines were purchased from Peprotech. […]
# Dnmt3a = Dnmt3a protein level in nuclear fractions of E11.5 AGM cells; type: cell-based, mouse
# Description: RNA-sequencing analyses were performed to measure gene expression patterns in mouse AGM treated with cyclic strain or pharmacological modulators. Using computational algorithms, hierarchical clustering was performed of differentially expressed genes as well as measured their overrepresented biological processes and pathways. Gene expression clusters of differentially expressed genes were analyzed and their mean expression level across cell populations compared. Next, Venn comparison of up- and down-genes was constructed to analyze candidate(s) important for cyclic strain- or pharmacological modulator(s)-mediated the endothelial-to-HSC transition. Furthermore, Dnmt3b and Dnmt3a protein expressions were analyzed in nuclear fractions of mouse AGM cells using EqiQuick assay kits. Data are presented as mean±s.d. unless otherwise noted. Statistical analyses were performed by paired or un-paired Student's t-tests. Significance was set at P<0.05.
# Nuclear extracts from AGM explants were harvested using an EpiQuik Nuclear Extraction Kit (Epigentek Group Inc.). Dnmt3b and Dnmt3a protein levels were analyzed using a colorimetric EpiQuik Assay Kit (Epigentek Group Inc.), according to the manufacturer's instructions. Concentration of Dnmt3b and Dnmt3a is relative to 1 μg of nuclear extract proteins.
smiles,measurement,setting,value
"Clc1cccc(Cl)c1CSc1nnc(-c2cnccn2)s1 [Yoda1, 2-[5-[[(2,6-Dichlorophenyl)methyl]thio]-1,3,4-thiadiazol-2-yl]-pyrazine]",GEMM formation,E11.5 AGM cells; 25 μM,enhances GEMM formation
same,hematopoietic colony formation (endothelial-to-hematopoietic transition),E11.5 AGM cells; E11.5 AGM cells vs. control,stimulates the endothelial-to-hematopoietic transition
same,multipotent GEMM progenitor formation,[1],elevated multipotent hematopoietic progenitor formation and human hematopoiesis; also recorded: stimulates multipotent GEMM progenitor formation and human hematopoiesis
same,Dnmt3a protein expression,Dnmt3a,not Dnmt3a; also recorded: without impacting the expression of Dnmt3a
